The compounds below were run against T1, Human PPARα (Homo sapiens, UniProt Q07869) (assay: Human PPARα Reporter Assay (luciferase)). Details: human PPARα reporter cells, overnight incubation, antagonism; read-out: Luciferase IC50.
T1 construct: host or cells: proprietary non-human mammalian cells
T1 sequence (Q07869 1-468): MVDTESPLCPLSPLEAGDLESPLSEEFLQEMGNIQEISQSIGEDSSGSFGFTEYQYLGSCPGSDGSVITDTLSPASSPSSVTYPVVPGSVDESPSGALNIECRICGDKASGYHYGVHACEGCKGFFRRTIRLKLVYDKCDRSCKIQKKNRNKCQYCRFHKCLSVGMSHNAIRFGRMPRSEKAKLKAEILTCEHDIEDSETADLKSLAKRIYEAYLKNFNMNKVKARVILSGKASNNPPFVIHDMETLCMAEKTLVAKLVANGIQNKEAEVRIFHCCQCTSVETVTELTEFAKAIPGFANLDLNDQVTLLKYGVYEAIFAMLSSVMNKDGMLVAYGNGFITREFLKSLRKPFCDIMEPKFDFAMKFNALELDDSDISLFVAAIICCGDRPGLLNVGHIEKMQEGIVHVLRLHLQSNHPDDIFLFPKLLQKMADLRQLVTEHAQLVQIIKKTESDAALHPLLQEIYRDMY
Type: cell-based
Procedure, shortened: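 Agonist or antagonist activity read as luciferase light from engineered reporter cells carrying human PPARα and a responsive reporter gene. Cells got compound immediately on dispensing, incubated overnight, then treatment media swapped for luciferase detection reagent.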

In order of falling IC50:
1. CCn1c(CCCc2ccc(-c3cccc(CC(=O)O)c3)cc2)nn(Cc2ccc(C3CCCCC3)cc2)c1=O [Example 26, 2-(4′-(3-(1-(4-Cyclohexylbenzyl)-4-ethyl-5-oxo-4,5-dihydro-1H-1,2,4-triazol-3-yl)propyl)-[1,1′-biphenyl]-3-yl)acetic acid]  4.11 µM
2. CCn1c(CCCc2ccc(-c3cccc(C(F)(F)C(=O)O)c3)cc2)nn(Cc2ccc(C(C)(C)C)cc2)c1=O [Example 28, 2-(4′-(3-(1-(4-(tert-Butyl)benzyl)-4-ethyl-5-oxo-4,5-dihydro-1H-1,2,4-triazol-3-yl)propyl)-[1,1′-biphenyl]-3-yl)-2,2-difluoroacetic acid]  1.98 µM
3. CCn1c(CCCc2ccc(-c3cnc(NS(=O)(=O)Cc4ccccc4)cn3)cc2)nn(Cc2ccc(C(C)(C)C)cc2)c1=O [Example 119, N-(5-(4-(3-(1-(4-(tert-Butyl)benzyl)-4-ethyl-5-oxo-4,5-dihydro-1H-1,2,4-triazol-3-yl)propyl)phenyl)pyrazin-2-yl)-1-phenylmethanesulfonamide]  0.941 µM
4. CCCc1ccc(S(=O)(=O)Nc2ccc(-c3ccc(CCCc4nn(Cc5ccc(C(C)(C)C)cc5)c(=O)n4CC)cc3)nc2)cc1 [Example 71, 1-{[4-(tert-Butyl)phenyl]methyl}-4-ethyl-3-{3-[4-(5-{[(4-propylphenyl)sulfonyl]amino}(2-pyridyl))phenyl]propyl}-1,2,4-triazolin-5-one]  0.865 µM
5. CCCC(=O)Nc1cccc(-c2ccc(CCCc3nn(Cc4ccc(C(C)(C)C)cc4)c(=O)n3CC)cc2)n1 [Example 100, N-(6-{4-[3-(1-{[4-(tert-Butyl)phenyl]methyl}-4-ethyl-5-oxo-1,2,4-triazolin-3-yl)propyl]phenyl}-2-pyridyl)butanamide]  0.712 µM
6. CCn1c(CCCc2ccc(-c3ncc(N)cc3C(F)(F)F)cc2)nn(Cc2ccc(C(C)(C)C)cc2)c1=O [Example 156, 3-(3-{4-[5-Amino-3-(trifluoromethyl)(2-pyridyl)]phenyl}propyl)-1-{[4-(tert-butyl)phenyl]methyl}-4-ethyl-1,2,4-triazolin-5-one]  0.684 µM
7. CCn1c(CCCc2ccc(-c3cccc(C(C)C(=O)O)c3)cc2)nn(Cc2ccc(C(C)(C)C)cc2)c1=O (stereo not drawn) [Example 44, 2-(3-{4-[3-(1-{[4-(tert-Butyl)phenyl]methyl}-4-ethyl-5-oxo-1,2,4-triazolin-3-yl)propyl]phenyl}phenyl)propanoic acid]  0.652 µM
8. CCn1c(CCCc2ccc(-c3cccc(CC(=O)O)c3)cc2)nn(Cc2ccc(C3CC3)cc2)c1=O [Example 22, 2-(4′-(3-(1-(4-Cyclopropylbenzyl)-4-ethyl-5-oxo-4,5-dihydro-1H-1,2,4-triazol-3-yl)propyl)-[1,1′-biphenyl]-3-yl)acetic acid]  0.612 µM
9. CCn1c(CCCc2ccc(-c3cccc(CC(=O)O)c3)cc2)nn(Cc2ccc(C(F)(F)F)cc2)c1=O [Example 24, 2-(4′-(3-(4-Ethyl-5-oxo-1-(4-(trifluoromethyl)benzyl)-4,5-dihydro-1H-1,2,4-triazol-3-yl)propyl)-[1,1′-biphenyl]-3-yl)acetic acid]  0.579 µM
10. CCn1c(CCCc2ccc(-c3cccc(CC(=O)O)c3)cc2)nn(Cc2ccc(C(C)(C)C)s2)c1=O [Example 54, 2-(4′-(3-(1-((5-(tert-Butyl)thiophen-2-yl)methyl)-4-ethyl-5-oxo-4,5-dihydro-1H-1,2,4-triazol-3-yl)propyl)-[1,1′-biphenyl]-3-yl)acetic acid]  0.499 µM
11. CC(C)(C)c1ccc(Cn2nc(CCCc3ccc(-c4cccc(CC(=O)O)c4)cc3)n(CC3CC3)c2=O)cc1 [Example 53, 2-(4′-(3-(1-(4-(tert-Butyl)benzyl)-4-(cyclopropylmethyl)-5-oxo-4,5-dihydro-1H-1,2,4-triazol-3-yl)propyl)-[1,1′-biphenyl]-3-yl)acetic acid]  0.363 µM
12. CCn1c(CCCc2ccc(-c3cccc(C4(C(N)=O)CC4)c3)cc2)nn(Cc2ccc(C(C)(C)C)cc2)c1=O [Example 14, 1-(4′-(3-(1-(4-(tert-butyl)benzyl)-4-ethyl-5-oxo-4,5-dihydro-1H-1,2,4-triazol-3-yl)propyl)-[1,1′-biphenyl]-3-yl)cyclopropanecarboxamide]  0.284 µM
13. C=CCn1c(CCCc2ccc(-c3ccc(OC)c(CC(=O)O)c3)cc2)nn(Cc2ccc(C(C)(C)C)cc2)c1=O [Example 76, 2-(4′-(3-(4-Allyl-1-(4-(tert-butyl)benzyl)-5-oxo-4,5-dihydro-1H-1,2,4-triazol-3-yl)propyl)-4-methoxy-[1,1′-biphenyl]-3-yl)acetic acid]  0.261 µM
14. CCn1c(CCCc2ccc(-c3ccc4occ(C(=O)O)c4c3)cc2)nn(Cc2ccc(C(C)(C)C)cc2)c1=O [Example 89, 5-(4-(3-(1-(4-(tert-Butyl)benzyl)-4-ethyl-5-oxo-4,5-dihydro-1H-1,2,4-triazol-3-yl)propyl)phenyl)benzofuran-3-carboxylic acid]  0.251 µM
15. CCn1c(CCCc2ccc(-c3cccc(NS(=O)(=O)c4ccc(OC)cc4)n3)cc2)nn(Cc2ccc(C(C)(C)C)cc2)c1=O [Example 84, 1-{[4-(tert-Butyl)phenyl]methyl}-4-ethyl-3-{3-[4-(6-{[(4-methoxyphenyl)sulfonyl]amino}(2-pyridyl))phenyl]propyl}-1,2,4-triazolin-5-one]  0.208 µM
16. CCn1c(CCCc2ccc(-c3cccc(NS(=O)(=O)c4ccc(C(F)(F)F)cc4)n3)cc2)nn(Cc2ccc(C(C)(C)C)cc2)c1=O [Example 82, 1-{[4-(tert-Butyl)phenyl]methyl}-4-ethyl-3-(3-{4-[6-({[4-(trifluoromethyl)phenyl]sulfonyl}amino)(2-pyridyl)]phenyl}propyl)-1,2,4-triazolin-5-one]  0.181 µM
17. CCn1c(CCCc2ccc(-c3ccc(OC)c(CC(=O)O)c3)c(C(F)(F)F)c2)nn(Cc2ccc(C(C)(C)C)cc2)c1=O [Example 150, 2-(4′-(3-(1-(4-(tert-Butyl)benzyl)-4-ethyl-5-oxo-4,5-dihydro-1H-1,2,4-triazol-3-yl)propyl)-4-methoxy-2′-(trifluoromethyl)-[1,1′-biphenyl]-3-yl) acetic acid]  0.126 µM
18. CCn1c(CCCc2ccc(-c3ccc(OC)c(CC(=O)O)n3)cc2)nn(Cc2ccc(C(C)(C)C)cc2)c1=O [Example 144, 2-(6-(4-(3-(1-(4-(tert-Butyl)benzyl)-4-ethyl-5-oxo-4,5-dihydro-1H-1,2,4-triazol-3-yl)propyl)phenyl)-3-methoxypyridin-2-yl)acetic acid]  0.114 µM
19. CCn1c(CCCc2ccc(-c3ccc(C(F)(F)F)c(NS(=O)(=O)c4ccccc4)n3)cc2)nn(Cc2ccc(C(C)(C)C)cc2)c1=O [Example 164, 1-{[4-(tert-Butyl)phenyl]methyl}-4-ethyl-3-[3-(4-{6-[(phenylsulfonyl)amino]-5-(trifluoromethyl)(2-pyridyl)}phenyl)propyl]-1,2,4-triazolin-5-one]  0.02 µM
20. CCn1c(CCCc2ccc(-c3ccc(OC)c(NS(=O)(=O)C4CCCCC4)n3)cc2)nn(Cc2ccc(C(C)(C)C)cc2)c1=O [Example 192, 1-{[4-(tert-Butyl)phenyl]methyl}-4-ethyl-3-[3-(4-{6-[(cyclohexylsulfonyl)amino]-5-methoxy(2-pyridyl)}phenyl)propyl]-1,2,4-triazolin-5-one]  0.012 µM
21. CCn1c(CCCc2ccc(-c3ccc(OC)c(NS(=O)(=O)c4ccc(OC)nc4)n3)cc2)nn(Cc2ccc(C(C)(C)C)cc2)c1=O [Example 114, 1-{[4-(tert-Butyl)phenyl]methyl}-4-ethyl-3-{3-[4-(5-methoxy-6-{[(6-methoxy(3-pyridyl))sulfonyl]amino}(2-pyridyl))phenyl]propyl}-1,2,4-triazolin-5-one]  0.007 µM
